The values that follow come from paper PMC7923178, “Binding of Amyloid β(1–42)-Calmodulin Complexes to Plasma Membrane Lipid Rafts in Cerebellar Granule Neurons Alters Resting Cytosolic Calcium Homeostasis” (International Journal of Molecular Sciences, 2021).

pIC50, pKd: −log10 of the molar value.

Data set [1] concerns L-type calcium channels (LTCCs). Kind of data set: LTCC contribution to resting cytosolic calcium (nifedipine-sensitive Fura-2 ratio).
In data set [2] the target is purified calmodulin (CaM). Particulars: previous work, read-out: dissociation constant of the complex with purified CaM; cited from earlier work. An excerpt:
Lipid rafts are a primary target in studies of amyloid β (Aβ) cytotoxicity in neurons. Exogenous Aβ peptides bind to lipid rafts, which in turn play a key role in Aβ uptake, leading to the formation of neurotoxic intracellular Aβ aggregates. On the other hand, dysregulation of intracellular calcium homeostasis in neurons has been observed in Alzheimer’s disease (AD). […] In this work, to experim ... || Dysregulation of intracellular calcium homeostasis in neurons is a common metabolic feature in both sporadic and familial forms of AD, which by itself can account for enhanced intraneuronal Aβ production and tau hyperphosphorylation potentiation. […] The ... || (+ 1 further places)

Data set [3] relates to calmodulin (CaM). Description: Co-immunoprecipitation of CaM with anti-Aβ antibody in CGN lysates. Type of data set: binding, rat. Particulars: CGN lysates treated with 10 mM methyl-β-cyclodextrin 30 min, western blot.
Data set [4] deals with calmodulin (CaM). Kind of data set: Aβ(1–42) binding capacity of CaM in CGN, from western blot quantification of CaM. Further details: species or system rat. Particulars: per Petri plate with […] 10^6 CGN cells (56 ± 6 picomoles CaM per plate); Aβ(1–42) largely dimers.
Data set [5] deals with mature CGN. Description: Resting cytosolic calcium, Fura-2 ratio (340/380) imaging. Particulars: 2 μM, 2–5 h incubation; MLocke's K25 medium; control 160 ± 30 nM. Type of data set: cell-based, rat.
A further data set relates to neurons. Particulars: small oligomeric states of the peptide; cited from earlier work.
Data set [6] relates to mature CGN. Kind of data set: Internalization of Aβ(1–42) in mature CGN by fluorescence microscopy. Particulars: 2 h incubation with 2 µM Aβ in extracellular medium (1.8 μM Aβ(1–42) plus 0.2 μM HiLyte-Fluor555 derivative), 37 °C, 5% CO2, assuming equal internalization rate, 102 cells.

As to `COC(=O)C1=C(C)NC(C)=C(C(=O)OC)C1c1ccccc1[N+](=O)[O-]` [nifedipine, Nifedipine], in data set [1] (CGN non-treated with amyloid β(1–42), nifedipine 2 μM or 10 µM), the “difference between the ratio 340/380 in the absence and presence of nifedipine” value was found to be 0.64. Besides, the “blockade of Ca2+ entry in the soma” value in data set [1] (nifedipine 10 µM, untreated and Aβ-treated cells) was “totally blocks”.

As for “Aβ(25–35): amyloid β peptide fragment 25–35, cited from previous work (GSNKGAIIGLM; Amyloid-beta protein 42; UniProt P05067 696-706, looked up, fragment)”, the pKd in data set [2] is approximately 9.00.

“Aβ(1–42): Unlabeled amyloid β(1–42) peptide synthesized and supplied by StabVida”: in the data set with calmodulin (CaM) [3], the “co-immunoprecipitation of CaM with anti-Aβ(1–42) antibody” value is “co-immunoprecipitation of CaM with the anti-Aβ(1–42) antibody”. Besides, in the data set with calmodulin (CaM) [4], the “Aβ(1–42) that can be bound by CaM in CGN” value is listed as “up to 120 ± 13 picomoles of Aβ(1–42) /2.5 × 10^6 cells”. In addition, the “[Ca^2+]i” value with mature CGN [5] was 71 ± 7 nM. For the same compound, the pKd in data set [2] was approximately 9.00. Besides, the “half-time of internalization in neurons” value with neurons is 12 to 14 h. Also, the “intracellular (internalized) concentration of Aβ monomers” value in the data set on mature CGN [6] is reported as 193 ± 21 nM. Moreover, the “inhibition of LTCC activity” value in data set [1] (2 µM (monomers) in medium, 2 h incubation of mature CGN) is recorded as “about 50%”. For the same compound, the pIC50 in data set [1] (read-out: concentration of internalized Aβ(1–42) dimers that inhibited by 50% the LTCC's activity, internalized dimers after 2 h with 2 µM monomers) was more than 7.00.
